B1: CNTF: ciliary neurotrophic factor, neurotrophin used as positive control for cell differentiation in primary screening (protein, UniProt P26441 1-200, looked up)
Ciliary neurotrophic factor: MAFTEHSPLTPHRRDLCSRSIWLARKIRSDLTALTESYVKHQGLNKNINLDSADGMPVASTDQWSELTEAERLQENLQAYRTFHVLLARLLEDQQVHFTPTEGDFHQAIHTLLLQVAAFAYQIEELMILLEYKIPRNEADGMPINVGDGGLFEKKLWGLKVLQELSQWTVRSIHDLRFISSHQTGIPARGSHYIANNKKM

What was measured:
[1] = test system: Akt; test: Akt activity in cell extracts of oligodendrocyte precursors (phosphorylation of Akt substrate GSKα/β); format: cell-based; settings: 10 μM, 48 h
Text: Oligodendrocyte precursor differentiation requires the activation of a complex, highly controlled machinery that signals cells to stop migrating/proliferating and start extending processes and producing myelin components. A number of inducers and intracellular mediators of this process have been identified in vitro and in viva. […] Therefore, we studied whether our selected small molecules induced Akt signaling in oligodendrocyte precursors. We analyzed Akt activity in cell extracts of oligodendrocyte precursors treated with selected compounds (10 μM, 48 h), as determined by phosphorylation of Akt substrate GSKα/β.

[2] = test system: oligodendrocyte progenitors; test: Primary/secondary screening: oligodendrocyte progenitor morphology changes and Plp-EGFP fluorescence; format: cell-based, mouse
Description: Oligodendrocyte progenitors were generated from embryonic neural progenitors growing in cell aggregates known as neurospheres (Nphs). Nph were prepared from embryos at 14.5 days of gestation obtained from timed pregnant females of either wild type mice or the proteolipid protein-enhanced-green fluorescence protein (Plp-EGFP) transgenic mouse. In brief, after separation of meninges and cerebellum, cerebrum tissue was mechanically triturated with a 1 ml Gilson pipette until total tissue disaggregation was achieved, filtered through a 70 μm cell strainer (Fisher Scientific, Pittsburg, Pa.) and plated in 25 cm^2 plastic culture flasks (2 brains/flask). Nph proliferation media (NPM) was DMEM/F12, B27 neuronal supplement (Gibco, Baltimore, Md.) and 10 ng/ml EGF (Sigma, St. Louis, Mo.). After 48-72 hr, floating Nphs were passaged at a 1:3 ratio in the same medium every 3-4 days. To generate oligodendrocyte progenitors, single cells suspensions were obtained by chemical disgregation with the mouse NeuroCult dissociation kit (StemCell Technologies, Alberta, Canada). The single cell suspension was filtered through a 70 μm cell strainer and plated on 96-well poly-D-Lysine (PDL)-coated plates at a cell density of 1.5×10^4 cells/cm^2. Cells were maintained in NPM supplemented with 10 ng/ml PDGF/bFGF instead of EGF. Bipolar, oligodendrocyte progenitor cells were observed 24 hours after plating. […]
The small molecule library consists of handcrafted drug-like organic molecules with molecular weight in a range of 250-550, dissolved in DMSO at concentration of 5 mg/ml or […]. Their structure and >95% purity have been validated by NMR. […] Oligodendrocyte progenitor differentiation was scored using as 4 scale values as follows: 1: bipolar, undifferentiated; 2: bipolar to tripolar, initiated differentiation; 3: multibranched, differentiated cells; 4: multibranched, differentiated cells showing membranous structures (FIG. 1).
Differentiation induced by selected compounds was further validated by fluorescence microscopy in cells generated from our Plp-EGFP transgenic mouse. Increased fluorescence in treated oligodendrocyte progenitor was indicative of cell maturation and was again scored following the same scale. […] These were analyzed for cell toxicity assays by MTT were yellow 3-(4,5-Dimethylthiazol-2-yl)-2,5-diphenyltetrazolium bromide, a tetrazole (MTT) is reduced to purple formazan in the mitochondria of living cells, showing a solution color change measurable by OD620-590 (Data not shown). Further oligodendrocyte progenitor maturation in response to selected compounds was assessed by induction of myelin protein expression as determined by immunocytochemistry and western blot. […]

[3] = test system: oligodendrocyte progenitor cells; test: Western blot for myelin proteins PLP/DM20 and CNPase in treated oligodendrocyte progenitor cells; format: cell-based, mouse; settings: Table 3, 10 μM, 48 hrs
Description: Oligodendrocyte progenitors were generated from embryonic neural progenitors growing in cell aggregates known as neurospheres (Nphs). Nph were prepared from embryos at 14.5 days of gestation obtained from timed pregnant females of either wild type mice or the proteolipid protein-enhanced-green fluorescence protein (Plp-EGFP) transgenic mouse. In brief, after separation of meninges and cerebellum, cerebrum tissue was mechanically triturated with a 1 ml Gilson pipette until total tissue disaggregation was achieved, filtered through a 70 μm cell strainer (Fisher Scientific, Pittsburg, Pa.) and plated in 25 cm^2 plastic culture flasks (2 brains/flask). Nph proliferation media (NPM) was DMEM/F12, B27 neuronal supplement (Gibco, Baltimore, Md.) and 10 ng/ml EGF (Sigma, St. Louis, Mo.). After 48-72 hr, floating Nphs were passaged at a 1:3 ratio in the same medium every 3-4 days. To generate oligodendrocyte progenitors, single cells suspensions were obtained by chemical disgregation with the mouse NeuroCult dissociation kit (StemCell Technologies, Alberta, Canada). The single cell suspension was filtered through a 70 μm cell strainer and plated on 96-well poly-D-Lysine (PDL)-coated plates at a cell density of 1.5×10^4 cells/cm^2. Cells were maintained in NPM supplemented with 10 ng/ml PDGF/bFGF instead of EGF. Bipolar, oligodendrocyte progenitor cells were observed 24 hours after plating. At the Moment of treatment to induce oligodendrocyte progenitor differentiation, the media was changed to OPC differentiation media containing NPM with a 1:10 dilution of PDGF/FGF.
For myelin protein analyses, cells were grown on 100 mm culture plates and after exposure to small molecules or controls were washed twice with ice-cold PBS. RIPA lysis buffer was added to the plates and the cells were scraped, collected and disrupted with a homogenizer on ice. Cell homogenates were then centrifuged at 6,000×g, 10 min, 4° C. and supernatants separated in a fresh tube. After adding Laemli loading buffer, proteins were denaturized at 70° C. for 10 mm and loaded in gradient gels (4-20, Criterion, BioRad, Calif.). Electroforetically separated proteins were electro-transferred to nitrocellulose membranes in a semi-dry apparatus and unspecific bonds were blocked with IRdye blocking solution for at least 1 hr at RT. After washing twice with TBS-T, primary antibodies were added and incubated over night at 4° C. Membranes were incubated with secondary, IRdye-infrared conjugated antibodies for 1 hr at RT and visualized on the Odyssey scanner.
(§1) The primary screening to select positive compounds was performed at a standard concentration of 10 μM with cell morphology analysis 48 hrs after treatment. Dose response curves at 48 hrs treatment time were performed to determine the minimum concentration compounds A, A-7 and B needed to induce cell maturation. We assessed oligodendrocyte differentiation by cell morphology changes, green fluorescence in cells generated from or Plp-EGFP transgenic mouse, immunostaining for myelin proteins and western blot for expression of the oligodendrocyte markers PLP/DM20 and 2′,3′, cyclic nucleotide 3′ phosphohydrolase (CNPase). EC50 values were also calculated based on results of western blot for myelin proteins and subsequent band densitometry analysis. Additionally, we followed cell differentiation induced over long time exposure to compounds A and B (7 days, 0.1-10 μM).

[4] = test system: oligodendrocyte progenitor cells; test: Immunocytochemistry for PLP/DM20 and MBP, count of differentiated cells; format: cell-based, mouse; settings: Table 3, 10 μM, 48 hrs
Description: Immunodetection of oligodendrocyte and myelin markers was performed. In brief, Oligodendrocyte cells plated on PDL-coated dishes were initially fixed in 2% paraformaldehyde (PFA) for 10 min at room temperature (RT) and then 4% PFA for 15 min, washed three times with PBS and permeabilized with 0.1% Triton X100 for 10 min at RT. After blocking with 3% BSA in PBS for 60 min a RT, the cells were incubated with primary antibodies at the indicated concentrations overnight (ON) at 4° C. The cells were washed three times with cold PBS incubated with secondary antibodies for 45 min at RT, and washed again before mounting. Immunostaining of tissue sections prepared with a sliding microtome (30 μm) was performed. In brief, tris buffered saline (TBS) containing 100 nM Sodium fluoride (TBSS) was used the all dilutions and washes. For antigen retrieval, sections were washed 3 times in TBSS, incubated in 5% methanol and 3% H2O2 for 10 min, washed 2 times, and then incubated in 10% Triton X-100 for 20 min. Blocking of unspecific bonds was performed by incubating the tissue sections with 10% NGS for 1 hr. Primary antibodies were diluted in 3% BSA containing 0.02% Triton X-100 and sections were incubated overnight in this solution. The next day the sections were washed 3 times in TBSS, followed by 1 hr incubation in secondary antibodies (1:1000) at 4° C. After several washes, the sections were mounted using Vectashield (Vector Laboratories, Burlingame, Calif.). Visualization of immunostained cells and tissue was performed on a Leica DMR (Wetzlar, Germany) or a Leica SP5 confocal microscope.
as §1
Compound A-7-induced oligodendrocyte progenitor maturation was also analyzed in comparison to control cells in immunostaining experiments to detect the myelin proteins MBP and PLP. Positive cells for these markers showing processes formation and membranous structures were counted versus total cells and counterstained with the nuclear dye Dapi after 48 hrs (Tables 3 and 4) and 7 days treatment with 0.1, 1 or 10 μM compound A-7 (FIG. 2, B).

Molecule | induction of oligodendrocyte precursor maturation [2] | PLP/DM20 Expression (WB, % of Control) [3] | Differentiated Cells (IC, % of Control) [4] | other results
Br.COc1ccc(C2=CSC3=NCCN23)cc1F [F, 3-(3-fluoro-4-methoxyphenyl)-5,6-dihydroimidazo[2,1-b][1,3]thiazole hydrobromide] | showed induction of oligodendrocyte precursor maturation | – | – | Akt phosphorylation [1]: clearly detected
CCS(=O)(=O)N1CCN(C(=O)COc2ccc(C)cc2)CC1 | – | 160.7 ± 8.2 n = 2 % of Control | 207.5 ± 38.2 n = 3; p <0.05 % of Control | –
CC(=O)NC(=Cc1ccc(Cl)cc1)C(=O)N1CCOCC1 [D, N-[2-(4-chlorophenyl)-1-(4-morpholinylcarbonyl)vinyl]acetamide] | showed induction of oligodendrocyte precursor maturation | – | – | –
CCCS(=O)(=O)N1CCN(C(=O)COc2ccc(OC)cc2)CC1 | – | 143.0 ± 6.9 n = 2 % of Control | 224.3 ± 66.3 n = 3; p <0.05 % of Control | –
CCS(=O)(=O)N1CCN(C(=O)COc2ccccc2)CC1 | – | 148 ± 10.6 n = 2 % of Control | 195 ± 10.9 n = 3; p <0.05 % of Control | –
B1 | – | – | – | oligodendrocyte progenitor morphological changes indicative of cell maturation ([2]; positive control, 10 ng/ml, 48 hrs): marked oligodendrocyte progenitor morphological changes

— patent US20120172375A1, “COMPOUNDS AND METHODS OF PROMOTING OLIGODENDROCYTE PRECURSOR DIFFERENTIATION” (priority 2008, published 2012)
